Data: PubChem BioAssay (NCI)
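Briefly, cells in 96-well plates were exposed to five compound concentrations for 48 h, and endpoints were estimated by linear interpolation. The concentration for full growth arrest is given as TGI.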 Where a SMILES comes first, the peptide text is derived from it. The star is where a group is joined. Cbz = O=C(OCc1ccccc1)*; OBn = c1ccc(CO*)cc1

Experiments:
Assay in all cases: DTP human tumour cell line panel, 48 h
[1] = test system: 786-0 renal
[2] = test system: SF-295 CNS
[3] = test system: MDA-N
[4] = test system: SF-268 CNS
[5] = test system: CCRF-CEM leukemia
[6] = test system: NCI/ADR-RES ovarian
[7] = test system: NCI-H23 lung
[8] = test system: NCI-H460 lung
[9] = test system: A498 renal
[10] = test system: ACHN renal
[11] = test system: SK-OV-3 ovarian
[12] = test system: NCI-H522 lung
[13] = test system: HCT-116 colon
[14] = test system: HS 578T breast
[15] = test system: COLO 205 colon
[16] = test system: RXF 393 renal
[17] = test system: DU-145 prostate
[18] = test system: UO-31 renal
[19] = test system: LOX IMVI melanoma
[20] = test system: TK-10 renal

SMILES	TGI [1] [µM]	TGI [2] [µM]	TGI [3] [µM]	TGI [4] [µM]	TGI [5] [µM]	TGI [6] [µM]	TGI [7] [µM]	TGI [8] [µM]	TGI [9] [µM]	TGI [10] [µM]	TGI [11] [µM]	TGI [12] [µM]	TGI [13] [µM]	TGI [14] [µM]	TGI [15] [µM]	TGI [16] [µM]	TGI [17] [µM]	TGI [18] [µM]	TGI [19] [µM]	TGI [20] [µM]
CCOC(=O)c1cc(Sc2ccc(N)c(C(=O)OCC)c2)ccc1N	> 100	> 100	> 100	> 100	> 100	> 100	> 100	> 100	72.1	> 100	> 100	> 100	> 100	> 100	> 100	> 100	> 100	–	–	–
O=c1[nH]c(=O)n(C2OC(CO)C(O)C(F)C2O)cc1F (stereo not given)	> 100	> 100	> 100	> 100	> 100	> 100	> 100	> 100	> 100	> 100	> 100	> 100	> 100	> 100	> 100	–	> 100	> 100	> 100	> 100
C[C@H]1[C@H](C)N(Cc2ccccc2)P(=O)(C(O)/C=C/c2ccccc2)N1Cc1ccccc1 (stereo not given in full)	10.9	20.1	13.6	> 25	–	> 25	> 25	10.2	10.3	> 25	> 25	> 25	11.6	12.3	17.4	15.6	–	10.7	14.5	24.1
O=c1n(/N=C/c2ccccc2)c(=O)n2n1C1C=CC2CC1	> 100	> 100	> 100	> 100	> 100	> 100	> 100	> 100	> 100	> 100	> 100	–	> 100	> 100	> 100	–	> 100	> 100	> 100	> 100
Cc1nc2sc(CCl)nn2c(=O)c1Cl	22.4	31.1	24.8	33.4	24.9	50.8	33.3	25.3	–	29.3	28.1	12.4	26.2	47.3	32.2	11	29.7	27.6	7.34	25
O=C1CC(=O)NC(=NN2C(=O)CSC2c2ccc(Cl)c(Cl)c2)N1 (stereo not given)	> 100	> 100	> 100	> 100	49.3	> 100	> 100	> 100	> 100	> 100	> 100	> 100	> 100	> 100	> 100	> 100	> 100	> 100	–	> 100
O=c1c2cc(S(=O)(=O)Nc3ccccc3Cl)ccc2ncn1NS(=O)(=O)c1ccc(Br)cc1	> 37.5	> 37.5	> 37.5	> 37.5	> 37.5	> 37.5	> 37.5	> 37.5	–	> 37.5	> 37.5	> 37.5	> 37.5	> 37.5	> 37.5	–	> 37.5	> 37.5	> 37.5	> 37.5
CCOC(=O)/C(N=Nc1ccc(-n2c(C)nc3ccccc3c2=O)cc1)=C(/C)O	> 100	> 100	> 100	> 100	> 100	51.8	> 100	> 100	> 100	> 100	> 100	–	> 100	63.6	> 100	–	> 100	> 100	> 100	> 100
CCOC(=O)/C(C)=C\[C@@]1(C)O[C@@H](C)[C@@](C)(OC(C)=O)[C@@H]1OC(C)=O	> 100	> 100	> 100	> 100	> 100	> 100	77.1	> 100	> 100	> 100	> 100	62.7	> 100	> 100	> 100	–	> 100	–	> 100	> 100
COc1ccc(OC)c2sc(N3C(=O)/C(=C/Cc4ccco4)N=C3c3ccccc3)nc12	> 100	> 100	48.3	> 100	26.9	> 100	–	> 100	> 100	73	> 100	–	98.9	> 100	> 100	–	> 100	80.8	70	> 100
CCOC(=O)NC(C(F)(F)F)(C(F)(F)F)P(=O)(OC(C)C)OC(C)C	> 100	> 100	> 100	> 100	> 100	> 100	> 100	> 100	–	> 100	> 100	–	> 100	> 100	> 100	> 100	> 100	> 100	> 100	> 100
Cc1c2cnccc2c(C)c2c1[nH]c1ccc(O)cc12	1.42	5.57	> 10	> 10	> 10	8.11	8.25	2.63	–	8.29	> 10	> 10	2.2	> 10	> 10	7.24	5.83	–	1.71	> 10
Cc1occc1C(=S)Nc1ccc(Cl)c(C(=O)OCC(F)(F)F)c1	34.6	–	> 100	42.3	57.7	40.1	51.4	48.1	30.5	54.1	51.2	45.5	33.1	> 100	67.6	–	47.1	39.1	34.7	43
CCOC(=O)c1nc2ccc(C(F)(F)F)cc2nc1NCc1ccc(Cl)c(Cl)c1	46.7	69.9	> 100	> 100	> 100	> 100	> 100	> 100	92.1	68	> 100	33.5	> 100	80.7	> 100	81.5	–	> 100	> 100	> 100
O=C1NC(N2CCOCC2)=N/C1=C\c1cccs1	> 100	> 100	> 100	> 100	> 100	> 100	> 100	–	–	> 100	> 100	> 100	> 100	> 100	> 100	> 100	> 100	> 100	> 100	> 100
N#CC1(C#N)C2CCCCC23OC(=N)C1(C#N)C(c1ccco1)O3 (stereo not given)	31.2	> 100	33.8	67.4	> 100	> 100	70.5	> 100	57.7	94.2	> 100	–	38.5	70.4	31.6	59.1	90	> 100	37.5	36.1
COc1ccc(C2c3cc4c(cc3C(O)C3CCC(=O)N23)OCO4)cc1 (stereo not given)	> 100	> 100	> 100	> 100	> 100	> 100	> 100	> 100	> 100	> 100	> 100	> 100	> 100	> 100	> 100	–	> 100	> 100	> 100	> 100
CC1=C/C(=N\OCC(=O)O)CC(c2ccc(C(C)C)cc2)C1 (stereo not given)	> 100	> 100	> 100	–	> 100	75.5	–	> 100	–	–	> 100	79.1	> 100	> 100	> 100	> 100	> 100	–	–	–
NC(=O)c1cc2ccccc2oc1=Nc1ccccc1	> 100	–	> 100	> 100	> 100	> 100	> 100	> 100	> 100	> 100	> 100	–	> 100	> 100	> 100	> 100	> 100	–	> 100	–
COC(=O)CNC(=O)C(C)NC(=O)C(CC(=O)OCc1ccccc1)NC(=O)OCc1ccccc1 (stereo not drawn) (Cbz-Asp(OBn)-Ala-Gly-OMe; configuration not given here)	> 100	> 100	> 100	–	–	> 100	> 100	> 100	–	–	> 100	> 100	> 100	> 100	> 100	68.6	> 100	62.8	–	> 100
O=C1CSC2(CC(/C=C/c3ccccc3O)=NN2c2cccc(S(=O)(=O)O)c2)N1c1nc2ccccc2s1 (stereo not given)	98.7	–	> 100	> 100	51.7	> 100	> 100	> 100	> 100	> 100	–	30.4	> 100	> 100	> 100	> 100	97.5	98.9	39.3	58.5
NC1CC(=O)c2cc(Cl)sc21 (stereo not given)	> 100	> 100	> 100	> 100	> 100	> 100	> 100	> 100	–	> 100	> 100	> 100	> 100	> 100	> 100	> 100	> 100	> 100	> 100	> 100
O=C(O)c1c[nH]c2c(Sc3ccccc3)nccc2c1=O	> 100	> 100	> 100	> 100	> 100	> 100	> 100	> 100	> 100	> 100	> 100	> 100	> 100	> 100	> 100	–	> 100	> 100	> 100	> 100
Nc1ccn(C2CC(O)C(COP(O)(=S)OC3CC(n4ccc(N)nc4=O)OC3CO)O2)c(=O)n1 (stereo not given)	> 100	> 100	> 100	> 100	> 100	> 100	> 100	> 100	–	> 100	–	> 100	> 100	> 100	> 100	–	> 100	> 100	> 100	> 100
COc1cc2c(cc1OC)-c1[nH]c3ccc(C#N)cc3c1CC(=O)N2	> 100	> 100	> 90.6	> 100	> 100	> 100	> 100	> 100	> 100	> 100	> 100	> 100	–	> 100	10.6	–	> 100	> 22.6	> 33.6	> 100
